Results on 15 compounds are retold here after article PMC5063830, “Design and synthesis of chalcone derivatives as potential non-purine xanthine oxidase inhibitors” (SpringerPlus, 2016).

Some results are limits rather than exact numbers.

One data set deals with xanthine oxidase (Bos taurus, UniProt P80457). The data set can be described thus: Assessment of xanthine oxidase inhibitory activity (spectrophotometric, 290 nm). Type of data set: biochemical. Conditions: for IC50: 150 μM xanthine, 70 mM phosphate buffer pH 7.5, 25 °C, mean of four determinations, read-out: XO inhibitory activity IC50. As to the method: The assay mixture consisting of 50 μL of test solution, 35 μL of 70 mM phosphate buffer (pH 7.5), and 30 μL of enzyme solution (0.01 units/mL in 70 mM phosphate buffer, pH 7.5) was prepared immediately before use. […] The reaction was stopped by adding 25 μL of HCl 1 N, and the absorbance at 290 nm was measured with a Shimadzu UV-1800. […] XO inhibitory activity was expressed as the percentage inhibition of XO in the above assay system, calculated as (1 − B/A) × 100, where A and B are the activities of the enzyme without and with the test material. IC50 values were calculated from the mean values of data from four determinations.
xanthine oxidase, sequence (P80457 2-1332 limits assumed): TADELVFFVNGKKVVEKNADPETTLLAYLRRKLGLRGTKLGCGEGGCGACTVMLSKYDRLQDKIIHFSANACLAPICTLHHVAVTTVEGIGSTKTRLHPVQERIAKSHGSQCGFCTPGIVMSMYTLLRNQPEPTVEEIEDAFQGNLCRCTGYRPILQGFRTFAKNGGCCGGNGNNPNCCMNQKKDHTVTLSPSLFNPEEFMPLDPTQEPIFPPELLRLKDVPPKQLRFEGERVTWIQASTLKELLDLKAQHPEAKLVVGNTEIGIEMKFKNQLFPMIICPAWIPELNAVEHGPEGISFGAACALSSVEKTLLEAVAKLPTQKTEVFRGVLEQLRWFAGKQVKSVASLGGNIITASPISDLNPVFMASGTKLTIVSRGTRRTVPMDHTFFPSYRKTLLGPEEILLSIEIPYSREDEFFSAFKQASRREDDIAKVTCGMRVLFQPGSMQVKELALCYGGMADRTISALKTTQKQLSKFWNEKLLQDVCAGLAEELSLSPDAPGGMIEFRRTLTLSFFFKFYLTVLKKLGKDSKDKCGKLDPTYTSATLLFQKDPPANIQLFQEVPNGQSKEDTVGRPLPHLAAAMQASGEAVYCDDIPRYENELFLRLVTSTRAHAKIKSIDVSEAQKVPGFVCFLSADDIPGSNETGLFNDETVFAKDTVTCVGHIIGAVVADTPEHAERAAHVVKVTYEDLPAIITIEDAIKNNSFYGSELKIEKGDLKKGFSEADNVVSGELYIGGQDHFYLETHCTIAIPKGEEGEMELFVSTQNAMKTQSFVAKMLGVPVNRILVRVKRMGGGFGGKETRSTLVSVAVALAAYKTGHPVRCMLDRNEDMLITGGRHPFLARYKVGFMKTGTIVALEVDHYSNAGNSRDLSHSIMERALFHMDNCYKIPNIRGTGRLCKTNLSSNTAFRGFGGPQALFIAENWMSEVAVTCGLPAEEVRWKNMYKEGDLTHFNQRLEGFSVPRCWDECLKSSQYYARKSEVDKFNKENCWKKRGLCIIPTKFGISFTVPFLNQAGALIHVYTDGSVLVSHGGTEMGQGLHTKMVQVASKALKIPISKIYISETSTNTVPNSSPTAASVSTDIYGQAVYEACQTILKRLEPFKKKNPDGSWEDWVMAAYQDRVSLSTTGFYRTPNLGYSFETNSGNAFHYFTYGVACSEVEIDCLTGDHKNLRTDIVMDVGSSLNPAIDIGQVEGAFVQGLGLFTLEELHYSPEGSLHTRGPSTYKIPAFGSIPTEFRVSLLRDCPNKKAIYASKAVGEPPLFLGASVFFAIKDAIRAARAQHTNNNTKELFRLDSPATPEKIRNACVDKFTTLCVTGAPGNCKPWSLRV

In the case of `O=C(/C=C/c1ccc(O)c(O)c1)c1ccccc1` [Compound 3, 3,4-dihydroxychalcone], on xanthine oxidase, the IC50 – broadly, the midpoint of a concentration-inhibition curve – is 40.9 µM. Same read-out and setting: in the case of `O=C(/C=C/c1ccc(O)c(O)c1)c1ccc(O)cc1O` [Compound 5, 3,4,2ʹ,4ʹ-tetrahydroxychalcone] it was 4.3 µM; in that of `COc1ccc(/C=C/C(=O)c2ccc(O)cc2O)cc1OC` [Compound 9, 2ʹ,4ʹ-dihydroxy-3,4-dimethoxychalcone], above 100 µM. `O=C(/C=C/c1ccccc1)c1ccc(O)cc1O` [Compound 4, 2′,4′-dihydroxychalcone]: at xanthine oxidase, the “XO inhibitory activity (in words)” value was “do not show activity” and the IC50 was above 100 µM. Regarding `COc1ccc(/C=C/C(=O)c2ccc(O)cc2O)c(O)c1` [Compound 12, 2,2ʹ,4ʹ-trihydroxy-4-methoxychalcone], the IC50 at xanthine oxidase was 21.8 µM. Turning to `O=C(/C=C/c1ccccc1)c1ccccc1` [Compound 18, chalcone], at xanthine oxidase, the “XO inhibitory activity (in words)” value is “not displayed xanthine oxidase inhibitory activity” and the IC50 is above 100 µM. `CC(=O)Oc1ccc(C(=O)/C=C/c2ccc(OC(C)=O)c(OC(C)=O)c2)c(O)c1` [Compound 17, 3,4,4ʹ-triacetoxy-2ʹ-hydroxychalcone]: the melting point – broadly, the temperature, or range, at which the solid turns liquid – lay in the range of 110 to 111 °C. Moreover, the IC50 on xanthine oxidase is above 100 µM. Turning to `COc1ccc(C(=O)/C=C/c2ccc(O)c(O)c2)c(O)c1` [Compound 10, 3,4,2ʹ-trihydroxy-4ʹ-methoxychalcone], the IC50 on xanthine oxidase was determined as 19.2 µM. The compound `COc1ccc(C(=O)/C=C/c2ccc(O)c(O)c2)c(O)c1C(=O)/C=C/c1ccc(O)c(O)c1` [Compound 13, 3ʹ-caffeoyl-3,4,2ʹ-trihydroxy-4ʹ-methoxychalcone] returned a melting point of 200 to 201 °C. For the same compound, on xanthine oxidase, the “XO inhibitory activity (in words)” value is “most potent active” and the IC50 is 2.4 µM.

On to `COc1ccc(/C=C/C(=O)c2ccccc2)cc1O` [Compound 14, 3-hydroxy-4-methoxychalcone], for which the IC50 on xanthine oxidase is above 100 µM. For `COc1ccc(C(=O)/C=C/c2ccc(OC)c(OC)c2)c(O)c1` [Compound 16, 2ʹ-hydroxy-3,4,4ʹ-trimethoxychalcone], the IC50 at xanthine oxidase was above 100 µM.

`O=C(/C=C/c1ccc(O)cc1O)c1ccc(O)cc1O` [Compound 6, 2,4,2′,4′-tetrahydroxychalcone]: the IC50 on xanthine oxidase was 16.3 µM. On the same count and under the same terms, in the case of `COc1ccc(/C=C/C(=O)c2ccc(O)cc2O)cc1O` [Compound 8, 3,2ʹ,4ʹ-trihydroxy-4-methoxychalcone] it was 36.7 µM. On the same count and under the same terms, in the case of `COc1ccc(/C=C/C(=O)c2ccccc2)cc1OC` [Compound 15, 3,4-dimethoxychalcone] it was above 100 µM; in that of `COc1ccc(C(=O)/C=C/c2ccc(O)c(O)c2)c(OC)c1` [Compound 11, 3,4-dihydroxy-2ʹ,4ʹ-dimethoxychalcone], 2.5 µM.
